Experimental data taken from US6914045B2, “Glycopeptide antibiotics” (Wyeth Holdings Corporation, priority 2001, dated 2005).

How the values were obtained:
Assay in all cases: in vitro antibacterial evaluation, MIC by broth dilution
Type in all cases: cell-based
Escherichia coli = conditions: 18 hours at 35° C.
Streptococcus sp. = conditions: broth dilution, 18 hours at 35° C.
Outline: (§1)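 Following National Committee for Clinical Laboratory Standards recommendations (M7-A2), susceptibility was measured by dilution in Muller-Hinton II […]. Bacteria were seeded at 5×10^5 CFU/mL against compound concentrations from 64 down to 0.06 μg/mL.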

Enterococcus sp. = conditions: broth dilution, 18 hours at 35° C.
Outline: as §1

Staphylococcus sp. = conditions: broth dilution, 18 hours at 35° C.
Outline: as §1

CC(c1ccccc1)C1NC(=O)CNC(=O)C(CO)NC(=O)C(C(O)C2CNC(=N)N2C2OC(CO)C(O)C(O)C2O)NC(=O)C(C(O)C2CNC(=N)N2)NC(=O)C(Cc2ccc(OC3OC(CO)C(OC4OC(COCC=Cc5ccc(N(C)C)cc5)C(O)C(O)C4O)C(O)C3O)cc2)NC1=O (stereo not shown) [Example 243]
8 µg/mL: MIC Streptococcus pneumoniae (GC 1894) (Streptococcus sp.) | MIC Streptococcus pneumoniae (GC 1894) (Streptococcus sp.; inoculum 5×10^5 CFU/mL, strain GC 1894)
>64 µg/mL: MIC Escherichia coli (ATCC 25922) (Escherichia coli) | MIC Escherichia coli (GC 4559) (Escherichia coli) | MIC Enterococcus faecalis (ATCC 29212) (Enterococcus sp.) | MIC Enterococcus faecalis (GC 2691) (Enterococcus sp.) | MIC Enterococcus faecalis (GC 3059) (Enterococcus sp.) | MIC Enterococcus faecalis (GC 4552) (Enterococcus sp.) | MIC Enterococcus faecalis (GC 4554) (Enterococcus sp.) | MIC Enterococcus faecium (GC 4556) (Enterococcus sp.) | MIC Enterococcus faecalis (ATCC 29212) (Enterococcus sp.; strain ATCC 29212) | MIC Enterococcus faecalis (GC 4552) (Enterococcus sp.; strain GC 4552) | MIC Enterococcus faecalis (GC 4554) (Enterococcus sp.; strain GC 4554) | MIC Enterococcus faecium (GC 4556) (Enterococcus sp.; strain GC 4556) | MIC Enterococcus faecalis (GC 2691) (Enterococcus sp.; inoculum 5×10^5 CFU/mL, strain GC 2691) | MIC Enterococcus faecalis (GC 3059) (Enterococcus sp.; inoculum 5×10^5 CFU/mL, strain GC 3059)
32 µg/mL: MIC Streptococcus agalactiae (GC 4564) (Streptococcus sp.) | MIC Streptococcus pneumoniae (ATCC 6301) (Streptococcus sp.) | MIC Streptococcus pyogenes (GC 4563) (Streptococcus sp.) | MIC Streptococcus pneumoniae (ATCC 6301) (Streptococcus sp.; inoculum 5×10^5 CFU/mL, strain ATCC 6301) | MIC Streptococcus pyogenes (GC 4563) (Streptococcus sp.; inoculum 5×10^5 CFU/mL, strain GC 4563) | MIC Streptococcus agalactiae (GC 4564) (Streptococcus sp.; inoculum 5×10^5 CFU/mL, strain GC 4564) | MIC Enterococcus avium (GC 4558) (Enterococcus sp.) | MIC Enterococcus faecium (GC 4557) (Enterococcus sp.) | MIC Enterococcus faecium (GC 4557) (Enterococcus sp.; strain GC 4557) | MIC Enterococcus avium (GC 4558) (Enterococcus sp.; strain GC 4558) | MIC Coagulase Negative Staphylococcus (GC 4548) (Staphylococcus sp.) | MIC Coagulase Negative Staphylococcus (GC 4549) (Staphylococcus sp.) | MIC Coagulase Negative Staphylococcus (GC 6257) (Staphylococcus sp.) | MIC Coagulase Negative Staphylococcus (GC 4548) (Staphylococcus sp.; strain GC 4548) | MIC Coagulase Negative Staphylococcus (GC 4549) (Staphylococcus sp.; strain GC 4549) | MIC Coagulase Negative Staphylococcus (GC 6257) (Staphylococcus sp.; strain GC 6257)
64 µg/mL: MIC Escherichia coli (GC 4560) (Escherichia coli) | MIC Enterococcus faecalis (GC 2242) (Enterococcus sp.) | MIC Enterococcus faecalis (GC 4553) (Enterococcus sp.) | MIC Enterococcus faecalis (GC 6189) (Enterococcus sp.) | MIC Enterococcus faecium (GC 2243) (Enterococcus sp.) | MIC Enterococcus faecium (GC 2243) (Enterococcus sp.; strain GC 2243) | MIC Enterococcus faecalis (GC 4553) (Enterococcus sp.; strain GC 4553) | MIC Enterococcus faecalis (GC 6189) (Enterococcus sp.; strain GC 6189) | MIC Enterococcus faecalis (GC 2242) (Enterococcus sp.; inoculum 5×10^5 CFU/mL, strain GC 2242) | MIC Coagulase Negative Staphylococcus (GC 4547) (Staphylococcus sp.) | MIC Coagulase Negative Staphylococcus (GC 4551) (Staphylococcus sp.) | MIC Staphylococcus aureus (ATCC 29213) (Staphylococcus sp.) | MIC Staphylococcus aureus (GC 1131) (Staphylococcus sp.) | MIC Staphylococcus aureus (GC 3051) (Staphylococcus sp.) | MIC Staphylococcus aureus (GC 3053) (Staphylococcus sp.) | MIC Staphylococcus aureus (GC 4541) (Staphylococcus sp.) | MIC Staphylococcus aureus (GC 4542) (Staphylococcus sp.) | MIC Staphylococcus aureus (GC 4544) (Staphylococcus sp.) | MIC Staphylococcus aureus (GC 4545) (Staphylococcus sp.) | MIC Staphylococcus aureus-SMITH (GC 4543) (Staphylococcus sp.) | MIC Staphylococcus haemolyticus (GC 4546) (Staphylococcus sp.) | MIC Staphylococcus aureus (ATCC 29213) (Staphylococcus sp.; strain ATCC 29213) | MIC Staphylococcus aureus (GC 1131) (Staphylococcus sp.; strain GC 1131) | MIC Staphylococcus aureus (GC 3051) (Staphylococcus sp.; strain GC 3051) | MIC Staphylococcus aureus (GC 3053) (Staphylococcus sp.; strain GC 3053) | MIC Staphylococcus aureus (GC 4541) (Staphylococcus sp.; strain GC 4541) | MIC Staphylococcus aureus (GC 4542) (Staphylococcus sp.; strain GC 4542) | MIC Staphylococcus aureus-SMITH (GC 4543) (Staphylococcus sp.; strain GC 4543) | MIC Staphylococcus aureus (GC 4544) (Staphylococcus sp.; strain GC 4544) | MIC Staphylococcus aureus (GC 4545) (Staphylococcus sp.; strain GC 4545) | MIC Staphylococcus haemolyticus (GC 4546) (Staphylococcus sp.; strain GC 4546) | MIC Coagulase Negative Staphylococcus (GC 4547) (Staphylococcus sp.; strain GC 4547) | MIC Coagulase Negative Staphylococcus (GC 4551) (Staphylococcus sp.; strain GC 4551)
16 µg/mL: MIC Streptococcus pneumoniae (GC 4565) (Streptococcus sp.) | MIC Streptococcus pneumoniae (GC 4565) (Streptococcus sp.; inoculum 5×10^5 CFU/mL, strain GC 4565)
